Molecular target: T1, human capsaicin receptor (Homo sapiens, UniProt Q8NER1)
T1 construct: expressed in transfected cells; host or cells: HEK293, stably transfected with pBK-CMV construct
Assay: Calcium mobilization assay, determination of antagonist activity
Type: cell-based
Conditions: capsaicin at EC50; cells expressing human capsaicin receptor; Example 6
Procedure: A cDNA encoding full length human capsaicin receptor (SEQ ID NO:1, 2 or 3 of U.S. Pat. No. 6,482,611) is subcloned in the plasmid pBK-CMV (Stratagene, La Jolla, Calif.) for recombinant expression in mammalian cells.
Human embryonic kidney (HEK293) cells are transfected with the pBK-CMV expression construct encoding the full length human capsaicin receptor using standard methods. The transfected cells are selected for two weeks in media containing G418 (400 μg/ml) to obtain a pool of stably transfected cells. Independent clones are isolated from this pool by limiting dilution to obtain clonal stable cell lines for use in subsequent experiments.
Cells transfected with expression plasmids (as described in Example 4) and thereby expressing human capsaicin receptor are seeded and grown to 70-90% confluency in FALCON black-walled, clear-bottomed 96-well plates (#3904, BECTON-DICKINSON, Franklin Lakes, N.J.). The culture medium is emptied from the 96 well plates and FLUO-3 AM calcium sensitive dye (Molecular Probes, Eugene, Oreg.) is added to each well (dye solution: 1 mg FLUO-3 AM, 440 μL DMSO and 440 μl 20% pluronic acid in DMSO, diluted 1:250 in Krebs-Ringer HEPES (KRH) buffer (25 mM HEPES, 5 mM KCl, 0.96 mM NaH2PO4, 1 mM MgSO4, 2 mM CaCl2, 5 mM glucose, 1 mM probenecid, pH 7.4), 50 μl diluted solution per well). Plates are covered with aluminum foil and incubated at 37° C. for 1-2 h in an environment containing 5% CO2. After the incubation, the dye is emptied from the plates, and the cells are washed once with KRH buffer, and resuspended in KRH buffer.
To measure the ability of a test compound to agonize or antagonize a calcium mobilization response in cells expressing capsaicin receptors to capsaicin or other vanilloid agonist, the EC50 of the agonist capsaicin is first determined. An additional 20 μl of KRH buffer and 1 μl DMSO is added to each well of cells, prepared as described above. 100 μl capsaicin in KRH buffer is automatically transferred by the FLIPR instrument to each well. Capsaicin-induced calcium mobilization is monitored using either FLUOROSKAN ASCENT (Labsystems; Franklin, Mass.) or FLIPR (fluorometric imaging plate reader system; Molecular Devices, Sunnyvale, Calif.) instruments. Data obtained between 30 and 60 seconds after agonist application are used to generate an 8-point concentration response curve, with final capsaicin concentrations of 1 nM to 3 μM. KALEIDAGRAPH software (Synergy Software, Reading, Pa.) is used to fit the data to the equation: y=a*(1/(1+(b/x)^c)) to determine the 50% excitatory concentration (EC50) for the response. In this equation, y is the maximum fluorescence signal, x is the concentration of the agonist or antagonist (in this case, capsaicin), a is the Emax, b corresponds to the EC50 value and c is the Hill coefficient. Determination of Agonist Activity
Test compounds are dissolved in DMSO, diluted in 20 μl KRH buffer so that the final concentration of test compounds in the assay well is between 1 μM and 5 μM, and added to cells prepared as described above. The 96 well plates containing prepared cells and test compounds are incubated in the dark, at room temperature for 0.5 to 6 h. It is important that the incubation not continue beyond 6 h. Just prior to determining the fluorescence response, 100 μl capsaicin in KRH buffer at twice the EC50 concentration determined as described above is automatically added by the FLIPR instrument to each well of the 96 well plate for a final sample volume of 200 μl and a final capsaicin concentration equal to the EC50. The final concentration of test compounds in the assay wells is between 1 μM and 5 μM. […] The concentration of antagonist required to provide a 50% decrease, relative to the response observed in the presence of capsaicin and without antagonist, is the IC50 for the antagonist, and is preferably below 1 micromolar, 100 nanomolar, 10 nanomolar or 1 nanomolar.

T1 sequence (Q8NER1 whole entry): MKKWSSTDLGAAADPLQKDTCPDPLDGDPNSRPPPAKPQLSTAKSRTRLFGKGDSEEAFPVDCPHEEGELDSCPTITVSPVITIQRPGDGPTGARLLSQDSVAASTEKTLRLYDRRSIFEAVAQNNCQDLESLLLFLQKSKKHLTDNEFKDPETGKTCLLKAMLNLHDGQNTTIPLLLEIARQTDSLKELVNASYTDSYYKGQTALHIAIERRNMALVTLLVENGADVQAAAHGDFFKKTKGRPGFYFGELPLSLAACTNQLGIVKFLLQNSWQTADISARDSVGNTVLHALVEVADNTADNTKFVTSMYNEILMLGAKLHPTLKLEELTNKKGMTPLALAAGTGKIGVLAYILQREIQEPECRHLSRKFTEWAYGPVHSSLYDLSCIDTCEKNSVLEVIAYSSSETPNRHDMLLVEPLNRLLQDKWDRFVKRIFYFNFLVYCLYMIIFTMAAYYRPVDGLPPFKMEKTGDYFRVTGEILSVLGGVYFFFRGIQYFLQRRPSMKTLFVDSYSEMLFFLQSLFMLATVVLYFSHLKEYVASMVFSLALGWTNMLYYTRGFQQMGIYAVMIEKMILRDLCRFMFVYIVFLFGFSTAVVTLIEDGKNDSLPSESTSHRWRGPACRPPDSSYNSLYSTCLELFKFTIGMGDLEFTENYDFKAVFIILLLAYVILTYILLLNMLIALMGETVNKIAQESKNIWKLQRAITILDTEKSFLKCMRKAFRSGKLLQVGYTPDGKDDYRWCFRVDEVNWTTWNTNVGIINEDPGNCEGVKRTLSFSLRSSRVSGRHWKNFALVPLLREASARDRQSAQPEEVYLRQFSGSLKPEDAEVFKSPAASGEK

IC50, ≤ 1000 nM:
Cc1cc(CC(=O)OC(C)(C)C)cnc1N1CCN(c2cc(-c3ccc(F)cc3)nc(N3CCC[C@H]3C)n2)[C@H](C)C1 (relative stereo) [Example 190, tert-butyl rel-{6-[(3R)-4-{6-(4-fluorophenyl)-2-[(2R)-2-methylpyrrolidin-1-yl]pyrimidin-4-yl}-3-methylpiperazin-1-yl]-5-methylpyridin-3-yl}acetate]
C[C@@H]1CN(c2ncc(/C=C/CO)cc2Cl)CCN1c1cc(-c2ccc(F)c(Cl)c2)nc(N2CCC[C@H]2C)n1 (relative stereo) [Example 191, rel-(2E)-3-{5-chloro-6-[(3R)-4-{6-(3-chloro-4-fluorophenyl)-2-[(2R)-2-methylpyrrolidin-1-yl]pyrimidin-4-yl}-3-methylpiperazin-1-yl]pyridin-3-yl}prop-2-en-1-ol]
Cc1cc(OCCO)cnc1N1CCN(c2cc(-c3ccc(F)cc3)nc(N3CCC[C@H]3C)n2)[C@H](C)C1 (relative stereo) [Example 192, rel-2-({6-[(3R)-4-{6-(4-fluorophenyl)-2-[(2R)-2-methylpyrrolidin-1-yl]pyrimidin-4-yl}-3-methylpiperazin-1-yl]-5-methylpyridin-3-yl}oxy)ethanol]
C[C@@H]1CN(c2ncc(CCCO)cc2Cl)CCN1c1cc(-c2ccc(F)c(Cl)c2)nc(N2CCC[C@H]2C)n1 (relative stereo) [Example 193, rel-3-{5-chloro-6-[(3R)-4-{6-(3-chloro-4-fluorophenyl)-2-[(2R)-2-methylpyrrolidin-1-yl]pyrimidin-4-yl}-3-methylpiperazin-1-yl]pyridin-3-yl}propan-1-ol]
CCOC(=O)c1cccnc1N1CCN(c2cc(-c3ccc(F)c(Cl)c3)nc(N3CCOCC3)n2)CC1 [Example 1, 2-{4-[6-(3-Chloro-4-fluoro-phenyl)-2-morpholin-4-yl-pyrimidin-4-yl]-piperazin-1-yl}-nicotinic acid ethyl ester]
NC(=O)c1cccnc1N1CCN(c2cc(-c3ccc(F)c(Cl)c3)nc(N3CCOCC3)n2)CC1 [Example 2, 2-{4-[6-(3-Chloro-4-fluoro-phenyl)-2-morpholin-4-yl-pyrimidin-4-yl]-piperazin-l-yl}-nicotinamide]
O=C(O)c1cccnc1N1CCN(c2cc(-c3ccc(F)c(Cl)c3)nc(N3CCOCC3)n2)CC1 [Example 3, 2-{4-[6-(3-Chloro-4-fluoro-phenyl)-2-morpholin-4-yl-pyrimidin-4-yl] - piperazin-1-yl}-nicotinic acid]
O=[N+]([O-])c1cccnc1N1CCN(c2cc(-c3ccc(F)c(Cl)c3)nc(N3CCOCC3)n2)CC1 [Example 4, 4-{4-(3-Chloro-4-fluoro-phenyl)-6-[4-(3-nitro-pyridin-2-yl)-piperazin-1-yl]-pyrimidin-2-yl}-morpholine]
Cc1cc([N+](=O)[O-])cnc1N1CCN(c2cc(-c3ccc(F)c(Cl)c3)nc(N3CCCC3C)n2)CC1 (centres unmarked) [Example 5, 4-(3-Chloro-4-fluoro-phenyl)-6-[4-(3-methyl-5-nitro-pyridin-2-yl)-piperazin-1-yl]-2-(2-methyl-pyrrolidin-1-yl)-pyrimidine]
Cc1cc(OCCN(C)C)cnc1N1CCN(c2cc(-c3ccc(F)c(Cl)c3)nc(N3CCCC3C)n2)CC1 (centres unmarked) [Example 6, [2-(6-{4-[6-(3-Chloro-4-fluoro-phenyl)-2-(2-methyl-pyrrolidin-1-yl)-pyrimidin-4-yl]-piperazin-1-yl}-5-methyl-pyridin-3-yloxy)-ethyl]-dimethyl-amine]
CC1CCCN1c1nc(-c2ccc(F)c(Cl)c2)cc(N2CCN(c3nccc(C(=O)O)c3Cl)CC2)n1 (centres unmarked) [Example 7, 3-Chloro-2-{4-[6-(3-chloro-4-fluoro-phenyl)-2-(2-methyl-pyrrolidin-1-yl)-pyrimidin-4-yl]-piperazin-1-yl}-isonicotinic acid]
COC(=O)c1cnc(N2CCN(c3cc(-c4ccc(F)c(Cl)c4)nc(N4CCCC4C)n3)[C@H](C)C2)c(Cl)c1 (stereo partly drawn) [Example 8, 5-Chloro-6-{4-[6-(3-chloro-4-fluoro-phenyl)-2-(2-methyl-pyrrolidin-1-yl)-pyrimidin-4-yl]-3-(R)-methyl-piperazin-1-yl}-nicotinic acid methyl ester]
CC1CCCN1c1nc(-c2ccc(F)c(Cl)c2)cc(N2CCN(c3ncc(C(=O)O)cc3Cl)C[C@H]2C)n1 (stereo partly drawn) [Example 9, 5-Chloro-6-{4-[6-(3-chloro-4-fluoro-phenyl)-2-(2-methyl-pyrrolidin-1-yl)-pyrimidin-4-yl]-3-(R)-methyl-piperazin-l-yl}-nicotinic acid]
CC1CCCN1c1nc(-c2ccc(F)c(Cl)c2)cc(N2CCN(c3ncc(CO)cc3Cl)CC2)n1 (centres unmarked) [Example 10, (5-Chloro-6-{4-[6-(3-chloro-4-fluoro-phenyl)-2-(2-methyl-pyrrolidin-1-yl)-pyrimidin-4-yl]-piperazin-1-yl}-pyridin-3-yl)-methanol]
CNCc1cnc(N2CCN(c3cc(-c4ccc(F)c(Cl)c4)nc(N4CCCC4C)n3)CC2)c(Cl)c1 (centres unmarked) [Example 11, (5-Chloro-6-{4-[6-(3-chloro-4-fluoro-phenyl)-2-(2-methyl-pyrrolidin-1-yl)-pyrimidin-4-yl]-piperazin-1-yl}-pyridin-3-ylmethyl)-methyl-amine]
CC1CCCN1c1nc(-c2ccc(F)c(Cl)c2)cc(N2CCN(c3ncc(CN)cc3Cl)CC2)n1 (stereo not drawn) [Example 12, C-(5-Chloro-6-{4-[6-(3-chloro-4-fluoro-phenyl)-2-(2-methyl-pyrrolidin-l-yl)-pyrimidin-4-yl]-piperazin-1-yl}-pyridin-3-yl)-methylamine]
CC1CCCN1c1nc(-c2ccc(F)c(Cl)c2)cc(N2CCN(c3ncc(CO)cc3Cl)C[C@H]2C)n1 (stereo partly drawn) [Example 13, (5-Chloro-6-{4-[6-(3-chloro-4-fluoro-phenyl)-2-(2-methyl-pyrrolidin-1-yl)-pyrimidin-4-yl]-3-(R)-methyl-piperazin-1-yl}-pyridin-3-yl)-methanol]
CCCN1CCN(c2nc(-c3ccc(F)c(Cl)c3)cc(N3CCN(c4ncc([N+](=O)[O-])cc4C)CC3)n2)CC1 [Example 14, 4-(3-Chloro-4-fluoro-phenyl)-6-[4-(3-methyl-5-nitro-pyridin-2-yl)-piperazin-l-yl]-2-(4-propyl-piperazin-1-yl)-pyrimidine]
CC1CCCN1c1nc(-c2ccc(F)c(Cl)c2)cc(N2CCN(c3ncc(C(N)=O)cc3Cl)CC2)n1 (stereo not drawn) [Example 15, 5-Chloro-6-{4-[6-(3-chloro-4-fluoro-phenyl)-2-(2-methyl-pyrrolidin-1-yl)-pyrimidin-4-yl]-piperazin-l-yl}-nicotinamide]
CCCN1CCN(c2nc(-c3ccc(F)c(Cl)c3)cc(N3CCN(c4ncc(CO)cc4Cl)CC3)n2)CC1 [Example 16, (5-Chloro-6-{4-[6-(3-chloro-4-fluoro-phenyl)-2-(4-propyl-piperazin-1-yl)-pyrimidin-4-yl]-piperazin-1-yl}-pyridin-3-yl)-methanol]

Reference: patent US8334382B2, “Substituted biaryl piperazinyl-pyridine analogues” (Neurogen Corporation, priority 2004, dated 2012)
